Data taken from patent US7459567B2, “Substituted thienyl and furyl acylguanidines and methods of their use as beta-secretase modulators” (Wyeth, priority 2005, dated 2008).

Assays:
[1] = target: human BACE1 (Homo sapiens, UniProt P56817); test: Fluorescent kinetic assay, BACE1 inhibition (FRET peptide substrate cleavage); format: biochemical; details: 10 nM BACE1, 25 μM substrate WABC-6, 50 mM Na-Acetate pH 4.5, room temperature
Sequence of human BACE1 (P56817 46-501): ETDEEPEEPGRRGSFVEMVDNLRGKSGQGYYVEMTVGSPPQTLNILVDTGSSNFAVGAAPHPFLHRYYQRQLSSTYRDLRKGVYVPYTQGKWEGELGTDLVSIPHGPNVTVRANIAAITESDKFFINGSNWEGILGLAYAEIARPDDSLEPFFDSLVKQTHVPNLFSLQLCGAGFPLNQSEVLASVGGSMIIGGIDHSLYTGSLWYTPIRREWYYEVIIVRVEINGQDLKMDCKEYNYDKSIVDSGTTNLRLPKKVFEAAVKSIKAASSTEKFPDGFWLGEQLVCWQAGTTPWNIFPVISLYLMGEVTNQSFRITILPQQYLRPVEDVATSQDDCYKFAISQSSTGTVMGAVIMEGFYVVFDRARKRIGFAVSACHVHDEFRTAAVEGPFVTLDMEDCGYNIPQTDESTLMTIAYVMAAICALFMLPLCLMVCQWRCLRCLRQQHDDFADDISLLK

IC50 [1] | melting point | Compound
1600 nM | 76 to 78 °C | NC(N)=NC(=O)Cc1c(-c2ccccc2Cl)csc1-c1ccc(Oc2ccccc2)cc1 [Example 4, N″-{[4-(2-Chlorophenyl)-2-(4-phenoxyphenyl)thien-3-yl]acetyl}guanidine]
 | 117 to 118 °C | CC(=O)c1ccc(Oc2ccc(-c3scc(-c4ccccc4Cl)c3CC(=O)N=C(N)N)cc2)cc1 [Example 9, N″-{[2-[4-(4-Acetylphenoxy)phenyl]-4-(2-chlorophenyl)thien-3-yl]acetyl}guanidine]
 | 98 to 99 °C | CCCOc1ccc(-c2scc(-c3ccccc3Cl)c2CC(=O)N=C(N)N)cc1 [Example 1, N″-{[4-(2-Chlorophenyl)-2-(4-propoxyphenyl)thien-3-yl]acetyl}guanidine]
 | 204 to 205.5 °C | NC(N)=NC(=O)Cc1c(-c2ccccc2)csc1-c1ccccc1 [Example 2, N″-[(2,4-Diphenylthien-3-yl)acetyl]guanidine]
 | 71 to 72 °C | NC(N)=NC(=O)Cc1c(-c2ccccc2Cl)csc1-c1ccc(OCCc2cn[nH]c2)cc1 [Example 11, 2-(4-(2-Chlorophenyl)-2-{4-[2-(1H-pyrazol-4-yl)ethoxy]phenyl}-thien-3-yl)-N-(diaminomethylene)acetamide]
2060 nM | 116 to 118 °C | NC(N)=NC(=O)Cc1c(-c2ccccc2)csc1-c1ccc(Oc2ccccc2)cc1 [Example 3, N″-{[2-(4-Phenoxyphenyl)-4-phenylthien-3-yl]acetyl}guanidine]
1730 nM | 123 to 124 °C | CCC(=O)c1ccc(Oc2ccc(-c3scc(-c4ccccc4Cl)c3CC(=O)N=C(N)N)cc2)cc1 [Example 10, N″-({4-(2-Chlorophenyl)-2-[4-(4-propionylphenoxy)phenyl]thien-3-yl}acetyl)guanidine]
 | 111 to 113 °C | CCCOc1ccc(-c2csc(-c3ccccc3Cl)c2CC(=O)N=C(N)N)cc1 [Example 5, N″-{[2-(2-Chlorophenyl)-4-(4-propoxyphenyl)thien-3-yl]acetyl}guanidine]

Second part, the compound before the results:

Compound | IC50 [1] | melting point
N=C(NCCCO)NC(=O)Cc1c(-c2ccccc2Cl)csc1-c1ccc(C(=O)NCC2CC2)cc1 [Example 16, 4-[4-(2-Chlorophenyl)-3-(2-{[[(3-hydroxypropyl)amino](imino)-methyl]amino}-2-oxoethyl)thien-2-yl]-N-(cyclopropylmethyl)benzamide] |  | 100 to 101 °C
CCCCNC(=O)c1ccc(-c2scc(-c3ccccc3Cl)c2CC(=O)NC(=N)NCCCO)cc1 [Example 17, N-Butyl-4-[4-(2-chlorophenyl)-3-(2-{[[(3-hydroxypropyl)amino]-(imino)methyl]amino}-2-oxoethyl)thien-2-yl]benzamide] |  | 92 to 95 °C
CCCOc1ccc(-c2scc(-c3ccccc3OC(F)(F)F)c2CC(=O)N=C(N)N)cc1 [Example 6, N″-({2-(4-Propoxyphenyl)-4-[2-(trifluoromethoxy)phenyl]thien-3-yl}acetyl)guanidine] | 1600 nM | 90 to 92 °C
CCC(CC)NC(=O)c1ccc(-c2scc(-c3ccccc3Cl)c2CC(=O)NC(=N)NCCCO)cc1 [Example 13, 4-[4-(2-Chlorophenyl)-3-(2-{[[(3-hydroxypropyl)amino](imino)-methyl]amino}-2-oxoethyl)thien-2-yl]-N-(1-ethylpropyl)benzamide] |  | 109 to 110 °C
CCCOc1ccc(-c2scc(-c3ccccc3)c2CC(=O)NC(=N)N)cc1 [Example 7, N-{[4-Phenyl-2-(4-propoxyphenyl)thien-3-yl]acetyl}guanidine] |  | 94 to 95 °C
CCCNC(=O)c1ccc(-c2scc(-c3ccccc3Cl)c2CC(=O)NC(=N)NCCCO)cc1 [Example 15, 4-[4-(2-Chlorophenyl)-3-(2-{[[(3-hydroxypropyl)amino](imino)-methyl]amino}-2-oxoethyl)thien-2-yl]-N-propylbenzamide] |  | 116 to 118 °C
CCCOc1ccc(-c2scc(-c3ccccc3Cl)c2CC(=O)NC(=N)NCCCO)c(C)c1 [Example 19, 2-[4-(2-Chlorophenyl)-2-(2-methyl-4-propoxyphenyl)thien-3-yl]-N-[[(3-hydroxypropyl)amino](imino)methyl]acetamide] |  | 103 to 105.5 °C
CCCOc1ccc(-c2scc(-c3ccccc3Cl)c2CC(=O)NC(=N)NCCCO)cc1 [Example 12, 2-[4-(2-Chlorophenyl)-2-(4-propoxyphenyl)thien-3-yl]-N-[[(3-hydroxypropyl)amino](imino)methyl]acetamide] |  | 49 to 50 °C
N=C(NCCCO)NC(=O)Cc1c(-c2ccccc2Cl)csc1-c1ccc(C(=O)NCC(F)(F)F)cc1 [Example 14, 4-[4-(2-Chlorophenyl)-3-(2-{[[(3-hydroxypropyl)amino](imino)-methyl]amino}-2-oxoethyl)thien-2-yl]-N-(2,2,2-trifluoroethyl)benzamide] |  | 103 to 105 °C
CCCOc1ccc(-c2scc(-c3ccccc3Cl)c2CC(=O)NC(=N)NCCCO)cc1C [Example 18, 2-[4-(2-Chlorophenyl)-2-(3-methyl-4-propoxyphenyl)thien-3-yl]-N-[[(3-hydroxypropyl)amino](imino)methyl]acetamide] |  | 73 to 76 °C
CCCOc1ccc(-c2csc(-c3ccccc3)c2CC(=O)N=C(N)N)cc1 [Example 8, N″-{[2-Phenyl-4-(4-propoxyphenyl)thien-3-yl]acetyl}guanidine] |  | 131 to 132 °C
